The text below walks through data of US20250230147A1, “LACTAMS AS CBL-B INHIBITORS” (Genentech, Inc., priority 2021, published 2025).

As a reminder, the IC50 is the point on the concentration scale where inhibition reaches its midpoint.

One test has as its target Cbl-b (Homo sapiens (Human), UniProt Q13191). Briefly: Cbl-b LCK Ub TR-FRET assay (Cbl-b Lck HTRF). It is filed as biochemical. The procedure, abridged:
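Biotin-Cbl-b preincubated with compound (10-point 3-fold series) 60 min, then His-LCK with 1 mM ATP (2× mixture) added for 90 min at room temperature. Ubiquitination detected by TR-FRET using HA-ubiquitin/UBE2D2 adduct, anti-HA-D2 and streptavidin-Eu; IC50 normalised to no-LCK and DMSO controls.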

Another test concerns the target c-Cbl (Homo sapiens (Human), UniProt P22681). Briefly: C-Cbl LCK Ub TR-FRET assay (c-cbl Lck HTRF). Format: biochemical. Particulars: for (fold-selectivity): C-cbl Lck HTRF IC50 relative to Cbl-b Lck HTRF IC50. The gist of the method:
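Signal is read once the detection mix has stood 20 min at ambient temperature. Curves are anchored by DMSO as maximum and by omission of LCK as minimum.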
On the technique in general: In TR-FRET formats the signal depends on donor and acceptor labels being close together.

Sequence of Cbl-b (Q13191 40-426): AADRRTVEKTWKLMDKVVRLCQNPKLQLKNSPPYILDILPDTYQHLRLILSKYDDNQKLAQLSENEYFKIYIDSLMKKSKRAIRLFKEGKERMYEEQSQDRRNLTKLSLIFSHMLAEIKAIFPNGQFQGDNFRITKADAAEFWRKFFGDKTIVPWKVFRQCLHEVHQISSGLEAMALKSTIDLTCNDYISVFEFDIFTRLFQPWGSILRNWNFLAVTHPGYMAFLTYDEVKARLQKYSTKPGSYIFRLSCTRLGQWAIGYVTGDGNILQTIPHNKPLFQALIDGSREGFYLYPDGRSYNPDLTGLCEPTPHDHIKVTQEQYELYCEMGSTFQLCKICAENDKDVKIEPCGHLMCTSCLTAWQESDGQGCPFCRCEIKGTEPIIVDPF
Sequence of c-Cbl (P22681 47-435): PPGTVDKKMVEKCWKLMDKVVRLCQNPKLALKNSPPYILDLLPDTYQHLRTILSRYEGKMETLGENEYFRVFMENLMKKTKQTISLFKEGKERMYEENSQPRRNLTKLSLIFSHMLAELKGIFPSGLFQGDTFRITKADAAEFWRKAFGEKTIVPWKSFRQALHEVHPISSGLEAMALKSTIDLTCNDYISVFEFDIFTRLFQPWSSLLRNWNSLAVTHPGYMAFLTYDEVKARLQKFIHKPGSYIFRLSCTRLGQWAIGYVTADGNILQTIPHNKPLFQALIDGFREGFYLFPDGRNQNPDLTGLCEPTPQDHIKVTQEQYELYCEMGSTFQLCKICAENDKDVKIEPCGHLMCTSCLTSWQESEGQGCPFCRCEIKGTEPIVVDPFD

`Cn1cnnc1[C@H](F)C1(c2cccc(N3Cc4c(cc(CN5CC[C@@H](F)C5)cc4C(F)(F)F)C3=O)c2)COC1` [Compound 80, 2-(3-(3-((R)-fluoro(4-methyl-4H-1,2,4-triazol-3-yl)methyl)oxetan-3-yl)phenyl)-6-(((R)-3-fluoropyrrolidin-1-yl)methyl)-4-(trifluoromethyl)isoindolin-1-one] registered an IC50 against Cbl-b of 110 nM. Also, at c-Cbl, it took 290 nM to reach half-maximal inhibition (IC50) and the “(fold-selectivity)” value is 2.6x.

Take `CC(C)[C@H]1CN(C)CCN1Cc1cc2c(c(C(F)(F)F)c1)CN(c1cccc(C3([C@H](F)c4nncn4C)CC(F)(F)C3)c1)C2=O` [Compound 190, 2-(3-(3,3-difluoro-1-((S)-fluoro(4-methyl-4H-1,2,4-triazol-3-yl)methyl)cyclobutyl)phenyl)-6-(((S)-2-isopropyl-4-methylpiperazin-1-yl)methyl)-4-(trifluoromethyl)isoindolin-1-one]: the 50% inhibitory concentration (IC50) on Cbl-b came to 47 nM. In addition, at c-Cbl, the IC50 is 38 nM and the “(fold-selectivity)” value is given as 0.82x.

`CN(CCC(C)(C)O)Cc1cc2c(c(C(F)(F)F)c1)CN(c1cccc(C3([C@H](F)c4nncn4C)COC3)c1)C2=O` [Compound 158, (S)-2-(3-(3-(fluoro(4-methyl-4H-1,2,4-triazol-3-yl)methyl)oxetan-3-yl)phenyl)-6-(((3-hydroxy-3-methylbutyl)(methyl)amino)methyl)-4-(trifluoromethyl)isoindolin-1-one] had a half-maximal inhibitory concentration (IC50) against Cbl-b of 270 nM. In addition, at c-Cbl, the IC50 turned out to be 280 nM and the “(fold-selectivity)” value worked out at 1.0x.

The compound `Cc1ncnn1CC1(c2cccc(N3Cc4c(cc(CN5CCN(C)C[C@@H]5C(C)C)cc4C(F)(F)F)C3=O)c2)COC1` [Compound 254, (S)-6-((2-isopropyl-4-methylpiperazin-1-yl)methyl)-2-(3-(3-((5-methyl-1H-1,2,4-triazol-1-yl)methyl)oxetan-3-yl)phenyl)-4-(trifluoromethyl)isoindolin-1-one] gave an IC50 on Cbl-b of 2400 nM. At c-Cbl, 3200 nM corresponded to half-maximal inhibition (IC50) and the “(fold-selectivity)” value is “(1.4x)”.

As to `COC1(C)CN(Cc2cc3c(c(C(F)(F)F)c2)CN(c2cccc(C4([C@@H](F)c5nncn5C)COC4)c2)C3=O)C1` [Compound 179, (R)-2-(3-(3-(fluoro(4-methyl-4H-1,2,4-triazol-3-yl)methyl)oxetan-3-yl)phenyl)-6-((3-methoxy-3-methylazetidin-1-yl)methyl)-4-(trifluoromethyl)isoindolin-1-one], the IC50 at Cbl-b is 54 nM. In addition, at c-Cbl, the IC50 is 110 nM and the “(fold-selectivity)” value was 2.1x.

For the compound `Cn1cnnc1CC1(c2cc(NC3CCCC3O)nc(N3Cc4c(cccc4C(F)(F)F)C3=O)c2)COC1` (stereo not drawn) [Compound 489, 2-(6-((2-hydroxycyclopentyl)amino)-4-(3-((4-methyl-4H-1,2,4-triazol-3-yl)methyl)oxetan-3-yl)pyridin-2-yl)-4-(trifluoromethyl)isoindolin-1-one], the IC50 against Cbl-b amounted to 5000 nM. On c-Cbl, 19500 nM corresponded to half-maximal inhibition (IC50) and the “(fold-selectivity)” value is on record as “(3.8x)”.

For the compound `Cn1cnnc1CC1(c2cc(NC3CCC(F)(F)C3)nc(N3Cc4c(cccc4C(F)(F)F)C3=O)c2)COC1` (stereo not drawn) [Compound 483, 2-(6-((3,3-difluorocyclopentyl)amino)-4-(3-((4-methyl-4H-1,2,4-triazol-3-yl)methyl)oxetan-3-yl)pyridin-2-yl)-4-(trifluoromethyl)isoindolin-1-one], the midpoint of inhibition at Cbl-b, the IC50, lay at 1800 nM. Further, at c-Cbl, it took 20000 nM to reach half-maximal inhibition (IC50) and the “(fold-selectivity)” value is recorded as “(12x)”.

Turning to `Cn1cnnc1CC1(c2cc(NCC3CCOCC3)nc(N3Cc4c(cc(CNC5(C)CCC5)cc4C(F)(F)F)C3=O)c2)CCC1` [Compound 335, 2-(4-(1-((4-methyl-4H-1,2,4-triazol-3-yl)methyl)cyclobutyl)-6-(((tetrahydro-2H-pyran-4-yl)methyl)amino)pyridin-2-yl)-6-(((1-methylcyclobutyl)amino)methyl)-4-(trifluoromethyl)isoindolin-1-one], inhibition against Cbl-b was half-maximal at 180 nM (IC50). On c-Cbl, inhibition was half-maximal at 190 nM (IC50) and the “(fold-selectivity)” value is recorded as “(1.0x)”.

For the compound `Cn1cnnc1[C@@H](F)C1(c2cccc(N3Cc4c(cc(CN5CCC[C@@H](CO)C5)cc4C(F)(F)F)C3=O)c2)COC1` [Compound 152, 2-(3-(3-((S)-fluoro(4-methyl-4R-1,2,4-triazol-3-yl)methyl)oxetan-3-yl)phenyl)-6-(((R)-3-(hydroxymethyl)piperidin-1-yl)methyl)-4-(trifluoromethyl)isoindolin-1-one], the half-maximal inhibitory concentration (IC50) against Cbl-b was 220 nM. Also, on c-Cbl, 280 nM corresponded to half-maximal inhibition (IC50) and the “(fold-selectivity)” value came to 1.3x.

At Cbl-b, `Cn1cnnc1CC1(c2cccc(N3Cc4c(cc(CN5CCNCC5)cc4C(F)(F)F)C3=O)c2)CC(F)(F)C1` [Compound 437, 2-(3-(3,3-difluoro-1-((4-methyl-4H-1,2,4-triazol-3-yl)methyl)cyclobutyl)phenyl)-6-(piperazin-1-ylmethyl)-4-(trifluoromethyl)isoindolin-1-one] registered a half-inhibitory concentration (IC50) of 62 nM. In addition, at c-Cbl, the concentration for half-maximal inhibition (IC50) was determined as 900 nM and the “(fold-selectivity)” value is “(0.97x)”.

In the case of `C[C@H](c1cc2c(c(C(F)(F)F)c1)CN(c1cccc(C3([C@@H](F)c4nncn4C)COC3)c1)C2=O)N1CC(C)(F)C1` [Compound 109, 2-(3-(3((R)-fluoro(4-methyl-4H-1,2,4-triazol-3-yl)methyl)oxetan-3-yl)phenyl)-6-((R)-1-(3-fluoro-3-methylazetidin-1-yl)ethyl)-4-(trifluoromethyl)isoindolin-1-one], the 50% inhibitory concentration (IC50) against Cbl-b worked out at 44 nM; at c-Cbl, 85 nM. The “(fold-selectivity)” value at c-Cbl is 1.9x.

The compound `CC[C@@H]1CN(Cc2cc3c(c(C(F)(F)F)c2)CN(c2cccc(C4(Cc5nncn5C)CC(F)(F)C4)c2)C3=O)CCN1` [Compound 426, (R)-2-(3-(3,3-difluoro-1-((4-methyl-4H-1,2,4-triazol-3-yl)methyl)cyclobutyl)phenyl)-6-((3-ethylpiperazin-1-yl)methyl)-4-(trifluoromethyl)isoindolin-1-one] gave an IC50 against Cbl-b of 35 nM. At c-Cbl, the 50% inhibitory concentration (IC50) stood at 26 nM and the “(fold-selectivity)” value is given as “(0.73x)”.

`CC[C@@H](C)NCc1cc2c(c(C(F)(F)F)c1)CN(c1cccc(C3(Cc4nncn4C)CC(F)(F)C3)c1)C2=O` [Compound 370, (R)-6-((sec-butylamino)methyl)-2-(3-(3,3-difluoro-1-((4-methyl-4H-1,2,4-triazol-3-yl)methyl)cyclobutyl)phenyl)-4-(trifluoromethyl)isoindolin-1-one] registered an IC50 at Cbl-b of 62 nM. Further, on c-Cbl, the half-inhibitory concentration (IC50) stood at 63 nM and the “(fold-selectivity)” value was “(1.0x)”.

Take `Cn1cnnc1[C@H](F)C1(c2cccc(N3Cc4c(cc(CN5CCC(C)(O)CC5)cc4C(F)(F)F)C3=O)c2)COC1` [Compound 141, (R)-2-(3-(3-(fluoro(4-methyl-4H-1,2,4-triazol-3-yl)methyl)oxetan-3-yl)phenyl)-6-((4-hydroxy-4-methylpiperidin-1-yl)methyl)-4-(trifluoromethyl)isoindolin-1-one]: at Cbl-b, half-maximal inhibition (IC50) required 91 nM. In addition, on c-Cbl, it took 120 nM to reach half-maximal inhibition (IC50) and the “(fold-selectivity)” value came to 1.3x.

As to `C[C@H](NC1(C)CCC1)c1cc2c(c(C(F)(F)F)c1)CN(c1cccc(C3([C@@H](F)c4nncn4C)COC3)c1)C2=O` [Compound 248, 2-(3-(3-((R)-fluoro(4-methyl-4H-1,2,4-triazol-3-yl)methyl)oxetan-3-yl)phenyl)-6-((S)-1-((1-methylcyclobutyl)amino)ethyl)-4-(trifluoromethyl)isoindolin-1-one], on Cbl-b, 6.7 nM corresponded to half-maximal inhibition (IC50). In addition, at c-Cbl, the midpoint of inhibition, the IC50, lay at 5.2 nM and the “(fold-selectivity)” value is given as “(0.79x)”.

Take `Cn1cnnc1[C@H](F)C1(c2cccc(N3Cc4c(cc(CNC5(C)CCC5)cc4C(F)(F)F)C3=O)c2)COC1` [Compound 494, (R)-2-(3-(3-(fluoro(4-methyl-4H-1,2,4-triazol-3-yl)methyl)oxetan-3-yl)phenyl)-6-(((1-methylcyclobutyl)amino)methyl)-4-(trifluoromethyl)isoindolin-1-one]: the IC50 on Cbl-b came to 13 nM; against c-Cbl, 12 nM. Moreover, the “(fold-selectivity)” value on c-Cbl is “(0.94x)”.

`Cc1ccn(CC2(c3cccc(N4Cc5c(cc(CN6CCN(C)C[C@@H]6C(C)C)cc5C(F)(F)F)C4=O)c3)COC2)n1` [Compound 264, (S)-6-((2-isopropyl-4-methylpiperazin-1-yl)methyl)-2-(3-(3-((3-methyl-1H-pyrazol-1-yl)methyl)oxetan-3-yl)phenyl)-4-(trifluoromethyl)isoindolin-1-one]: the half-inhibitory concentration (IC50) against Cbl-b was 7100 nM. Besides, on c-Cbl, the 50% inhibitory concentration (IC50) was 11000 nM and the “(fold-selectivity)” value is reported as “(1.5x)”.

On to `CC(C)N(C)Cc1cc2c(c(C(F)(F)F)c1)CN(c1cccc(C3([C@H](F)c4nncn4C)CC(F)(F)C3)c1)C2=O` [Compound 420, (S)-2-(3-(3,3-difluoro-1-(fluoro(4-methyl-4H-1,2,4-triazol-3-yl)methyl)cyclobutyl)phenyl)-6-((isopropyl(methyl)amino)methyl)-4-(trifluoromethyl)isoindolin-1-one], for which half-maximal inhibition against Cbl-b (IC50) was put at 240 nM. In addition, on c-Cbl, the IC50 came out at 220 nM and the “(fold-selectivity)” value is on record as “(0.91x)”.

Take `Cn1cnnc1CC1(c2cc(NCC(F)(F)CO)nc(N3Cc4c(cc(CNC5(C)CCC5)cc4C(F)(F)F)C3=O)c2)CCC1` [Compound 317, 2-(6-((2,2-difluoro-3-hydroxypropyl)amino)-4-(1-((4-methyl-4H-1,2,4-triazol-3-yl)methyl)cyclobutyl)pyridin-2-yl)-6-(((1-methylcyclobutyl)amino)methyl)-4-(trifluoromethyl)isoindolin-1-one]: it took 22 nM to reach half-maximal inhibition on Cbl-b (IC50). In addition, on c-Cbl, half-maximal inhibition (IC50) was put at 27 nM and the “(fold-selectivity)” value was “(1.2x)”.
